Where two headings read alike, the source gives them in different places.
Key:
HL-7702 cells = conditions: cited from earlier work
[1] = test system: minipig liver microsomes (PLMs); assay: Enzyme kinetics of P1 formation from kurarinone in PLMs; assay type: in vitro ADME
Procedure: (§1) Samples were prepared in a total volume of 200 μL, containing 0.3 mg/mL protein in human liver microsomes or 15 nM protein in recombinant human supersomes, probe substrates or 50 μM kurarinone, 10 mM MgCl2, 10 mM glucose-6-phosphate, and 1 unit/mL of glucose-6-phosphate dehydrogenase. The reactions were activated by adding NADPH following preincubation at 37°C for 5 min. The reactions were maintained at 37°C for 1 h and terminated by adding 200 μL ice-cold acetonitrile. The supernatant (10 μL) collected from the samples that were centrifuged (20,000 g, 20 min, 4°C) was injected into the HPLC system for analysis. Control incubations devoid of NADPH or kurarinone were performed parallelly to ensure that the produced metabolites were NADPH- or kurarinone-dependent.
(§2) Various concentrations of kurarinone (1–200 μM) were incubated with RLMs, MLMs, PLMs, RAMs, CYP1A2, and CYP2D6 to estimate kinetic parameters. The rest of the other conditions remained the same as described in Section 2.3. […] The apparent Km and Vmax values were calculated from nonlinear regression analysis of experimental data according to the Michaelis–Menten equation, and the results were represented graphically by Eadie–Hofstee plots. All incubations were carried out as triplicate independent experiments, and kinetic constants were recorded as mean ± SD.

[2] = Prediction of in vivo hepatic clearance in human from HLM kinetics; assay type: in vitro ADME
Excerpt: (§3) The following equations were utilized to predict the in vivo hepatic clearance of kurarinone in humans and rats.(1) CLint in vitro=Vmax/Km, (2) […], (3) CLH=QH·fu·CLint in/QH+fu·CLint in vivo, where the SF (scaling factor) represents the milligrams of microsomal protein per gram of the liver multiplied by the grams of liver weight; CLint is the intrinsic metabolic clearance; CLH is hepatic clearance; fu is the free fraction in the blood (no data were available for kurarinone; thus, fu was arbitrarily proposed to be 1); and QH is the hepatic blood flow. The CLH of kurarinone was calculated using equations (1)–(3).

[3] = Prediction of in vivo hepatic clearance in rat from RLM kinetics; assay type: in vitro ADME
Excerpt: as §3

UGT1A1 = target: T1, UGT1A1 (Homo sapiens, UniProt P22309); assay: Inhibition of recombinant UGT1A1-catalyzed 4-MU glucuronidation; assay type: in vitro ADME
T1 construct: purchased BD Gentest Corp. (Woburn, MA, USA)
T1 sequence (P22309 26-533): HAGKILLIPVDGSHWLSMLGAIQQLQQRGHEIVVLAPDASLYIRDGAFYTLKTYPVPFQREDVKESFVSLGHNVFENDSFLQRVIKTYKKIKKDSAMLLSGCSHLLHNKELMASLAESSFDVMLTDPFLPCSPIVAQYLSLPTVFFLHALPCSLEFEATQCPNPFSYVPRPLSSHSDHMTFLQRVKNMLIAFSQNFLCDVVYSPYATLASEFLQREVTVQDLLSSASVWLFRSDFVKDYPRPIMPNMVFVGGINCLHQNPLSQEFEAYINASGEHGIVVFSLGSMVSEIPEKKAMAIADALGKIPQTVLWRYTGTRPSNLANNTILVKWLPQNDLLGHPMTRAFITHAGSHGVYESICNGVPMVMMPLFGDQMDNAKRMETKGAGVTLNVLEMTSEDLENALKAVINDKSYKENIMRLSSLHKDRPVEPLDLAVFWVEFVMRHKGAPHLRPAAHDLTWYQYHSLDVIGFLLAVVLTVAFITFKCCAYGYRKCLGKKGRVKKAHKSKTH
Procedure: 4-MU, a nonspecific probe substrate for UGT isoforms, was used to explore the inhibition of UGT isoforms by kurarinone. The mixture (200 μL total volume) contained recombinant UGTs (final concentrations: 0.125, 0.05, 0.025, 0.05, 0.025, 0.05, 0.05, 0.25, 0.05, and 0.2 mg/mL for UGT1A1, UGT1A3, UGT1A6, UGT1A7, UGT1A8, UGT1A9, UGT1A10, UGT2B4, UGT2B7, and UGT2B15, respectively), 5 mM UDPGA, 5 mM MgCl2, 50 mM Tris-HCl buffer (pH 7.4), and 4-MU in the absence or presence of various concentrations of kurarinone. The concentrations of 4-MU were as follows: 110 μM for UGT1A1 and UGT1A6, 1200 μM for UGT1A3 and UGT2B4, 15 μM for UGT1A7, 750 μM for UGT1A8, 30 μM for UGT1A9, 80 μM for UGT1A10, 350 μM for UGT2B7, 250 μM for UGT2B15, and 2000 μM for UGT2B17. Kurarinone was dissolved in methanol, and the final concentration of methanol was 0.5% (v/v). Reactions were initiated by adding UDPGA, and incubations were carried out at 37°C in a shaking waterbath for 60 min. The reactions were terminated by addition of 200 μL of ice-cold acetonitrile containing 7-hydroxycoumarin (100 μM) as the internal standard. The incubation mixture was then centrifuged at 20,000 ×g for 20 min to obtain the supernatant, and an aliquot of supernatant (20 μL) was transferred to an autoinjector vial for HPLC analysis.

[4] = parameters: method as in PMID 25703950; conditions: rats, cited from earlier work
PAMPA permeability study = assay type: in vitro ADME; conditions: for Papp at 5 h: PAMPA, room temperature, read-out: PAMPA effective permeability Pe
Procedure: The PAMPA method was used to measure the membrane permeability values, as described by Singh et al. in an earlier study. Drug samples were dissolved in DMSO and then diluted to 10 mM concentrations as a stock solution. 300 μL diluted drugs solution was filled in the PAMPA plate as the “donor” wells, and the 96-well filter plate with a synthetic phospholipid membrane was then placed on the donor wells. The “acceptor” wells were filled with 200 μl of buffer solution, and the PAMPA instruments were incubated at room temperature for 5 h. Kurarinone permeability was assessed in quadruplicate at pH 4.0 and 7.4. […] At the end of the incubation, kurarinone and the marker compounds in the donor and acceptor wells were determined by HPLC, and permeability was calculated.

[5] = test system: monkey liver microsomes (MLMs); assay: Enzyme kinetics of P1 formation from kurarinone in MLMs; assay type: in vitro ADME
Procedure: as §1, §2

Vmax of P1 formation [1]: 8.46 ± 0.74 nmol·min^−1·mg^−1 protein | Km ([1]; kurarinone 1–200 μM): 49.9 ± 7.91 µM | percentage of CLH versus hepatic blood flow (QH) ([2]; human): 81.27% | predicted hepatic clearance CLH ([2]; humans, from HLM kinetic parameters of P1, fu assumed 1): 16.82 mL/min/kg | clearance category based on CLH projected from in vitro data ([2]; in humans, high-clearance = >70% liver blood flow): high-clearance | percentage of CLH versus hepatic blood flow (QH) ([3]; rat): 83.35% | predicted hepatic clearance CLH ([3]; rats, from RLM kinetic parameters of P1, fu assumed 1): 46.01 mL/min/kg body weight | inhibition type against UGT1A1 (UGT1A1; Dixon and Lineweaver–Burk plots): noncompetitive | inhibition at 60 min, 100 μM (UGT1A1; human, recombinant UGT1A1, pH 7.4, probe 4-MU (110 μM), 100 μM kurarinone, 4-MU glucuronidation, recombinant UGT): > 90% | IC50 (UGT1A1; recombinant UGT1A1, 4-MU glucuronidation, read-out: IC50 against UGT1A1): 13.6 µM | Ki (UGT1A1; second plot of slopes from Lineweaver–Burk plots): 13 µM | Papp at 5 h (PAMPA permeability study; pH = 4): 3.87 ± 1.39 ×10⁻⁶ cm/s | Papp at 5 h (PAMPA permeability study; pH = 7): 2.14 ± 0.82 ×10⁻⁶ cm/s | PAMPA permeability class (PAMPA permeability study; pH 4.0 and 7.4): moderate permeability | Vmax of P1 formation [5]: 4.83 ± 0.14 nmol·min^−1·mg^−1 protein | Km ([5]; kurarinone 1–200 μM): 21 ± 3.42 µM
Compound: C=C(C)[C@H](CC=C(C)C)Cc1c(O)cc(OC)c2c1O[C@H](c1ccc(O)cc1O)CC2=O [Kurarinone]
cytotoxicity (HL-7702 cells): remarkable cytotoxicity | t1/2 ([4]; intravenous 10 mg/kg): 1.81 h | Cmax [4]: 1668.01 ng/mL

— article PMC7509555, “An In Vitro Study for Evaluating Permeability and Metabolism of Kurarinone” (Evidence-based Complementary and Alternative Medicine : eCAM, 2020)
